One series in a line: Intra-Oral Caries Test. The following applies: plaque exposed twice a day to the peptide T1 solution (1.8% w/v calcium phosphate T1). Format: in vivo. As to the method:
The anticariogenicity of phosphopeptide T1 was determined using a modification of the intra-oral caries test of Koulourides and Ostrom (Caries Res. 10:442-482, 1976). Enamel slabs were inset in a removable intra-oral appliance to simulate an approximal area. This was done on both sides of the removable appliance (left and right). The appliance was worn to allow plaque accumulation in the simulated approximal areas. Eight times a day the appliance was removed and placed in a solution at 37°C. The solution was 2% w/v sucrose, 2% w/v glucose, 140 mM KCl, 20mM NaCl at pH 7.0. Twice a day the right side enamel slabs received exposure to a solution containing 1.8% w/v calcium phosphate T1 in 140 mM KCl, 20 mM NaCl at pH 7.0, while the left side received only the salt solution. At the completion of the experiment the enamel slabs were removed, sectioned and subjected to microradiography and microhardnass testing. […] The results were confirmed by microhardness analysis. Plaque was also taken from both sides of the appliance and analysed for calcium phosphate, serine phosphate and peptide T1 using a competitive, quantitative, enzyme-linked immunosorbent assay (ELISA) utilising monoclonal antipeptide T1 antibodies.

Series [1] is described as follows: Sequestration of calcium phosphate by the peptide. Format: physicochemical. The following applies: 10mg/ml solution at pH 7.0; metastable supersaturated solution. As to the method: The active peptides can sequester calcium phosphate and other salts of divalent metal ions. One mole of T1 binds 16 mole of CaHPO₄ such that a 10mg/ml solution of T1 at pH 7.0 can solubilize 60mM CaHPO₄ producing a metastable supersaturated solution with respect to calcium phosphate species. With chloride as the counter ion one mole of T1 binds only 5 mole of Ca⁺⁺ binding only to serine phosphates. One mole of T1 with about 16 mole of CaHPO₄ bound (M.W. 4883) will henceforth be referred to as calcium phosphate T1.

Square brackets hold non-standard residues; d marks the D form. Peptide text beside a SMILES is read from it. pS = N[C@@H](COP(=O)(O)O)C(=O)O

Experimental findings from EP0268663B1, “PHOSPHOPEPTIDES” (THE UNIVERSITY OF MELBOURNE, priority 1986, dated 1995) are described below.

With `CC[C@H](C)[C@H](NC(=O)[C@H](COP(=O)(O)O)NC(=O)[C@H](CCC(=O)O)NC(=O)[C@H](C)NC(=O)[C@H](CCC(=O)O)NC(=O)[C@H](CCSC)NC(=O)[C@@H](N)CCC(=O)O)C(=O)N[C@@H](COP(=O)(O)O)C(=O)N[C@@H](COP(=O)(O)O)C(=O)N[C@@H](COP(=O)(O)O)C(=O)N[C@@H](CCC(=O)O)C(=O)N[C@@H](CCC(=O)O)C(=O)N[C@H](C(=O)N[C@H](C(=O)N1CCC[C@H]1C(=O)N[C@@H](CC(N)=O)C(=O)N[C@@H](COP(=O)(O)O)C(=O)N[C@H](C(=O)N[C@@H](CCC(=O)O)C(=O)N[C@@H](CCC(N)=O)C(=O)N[C@@H](CCCCN)C(=O)O)C(C)C)C(C)C)[C@@H](C)CC` [Phosphopeptide T1] (H-EMEAE[pS]I[pS][pS][pS]EEIVPN[pS]VEQK-OH), in “Intra-Oral Caries Test”, the “level of peptide in plaque (ELISA)” value was “at least 0.4 % w/wet wt of plaque”. For the same compound, the CaHPO₄ solubilized in series [1] was determined as 60 mM.
